Assay results as given in patent US7241787B2, “Substituted N-cycloexylimidazolinones, process for their preparation and their use as medicaments” (Sanofi-Aventis Deutschland GmbH, priority 2004, dated 2007).

Target: T1, human MCH receptor (Homo sapiens, UniProt Q99705)
T1 construct: expressed in transfected cells
Experiment: Functional measurements of cellular calcium flux (FLIPR) to determine IC50 values
Format: cell-based
Conditions: recombinant HEK293 cell line expressing the human MCH receptor, calcium flux after addition of agonist (MCH) in presence of ligand
Text: Functional measurements to determine IC50 values
Cloning of the cDNA for the human MCH receptor, preparation of a recombinant HEK293 cell line which expresses the human MCH receptor, and functional measurements with the recombinant cell line took place in analogy to the description by Audinot et al. (J. Biol. Chem. 276, 13554–13562, 2001). A difference from the reference was, however, the use of the plasmid pEAK8 from EDGE Biosystems (USA) for the construction of the expression vector. The host used for the transfection was a transformed HEK cell line named “PEAK Stable Cells” (likewise from EDGE Biosystems). Functional measurements of the cellular calcium flux after addition of agonist (MCH) in the presence of ligand of the invention took place with the aid of the FLIPR apparatus from Molecular Devices (USA), using protocols of the apparatus manufacturer.

T1 sequence (Q99705 whole entry): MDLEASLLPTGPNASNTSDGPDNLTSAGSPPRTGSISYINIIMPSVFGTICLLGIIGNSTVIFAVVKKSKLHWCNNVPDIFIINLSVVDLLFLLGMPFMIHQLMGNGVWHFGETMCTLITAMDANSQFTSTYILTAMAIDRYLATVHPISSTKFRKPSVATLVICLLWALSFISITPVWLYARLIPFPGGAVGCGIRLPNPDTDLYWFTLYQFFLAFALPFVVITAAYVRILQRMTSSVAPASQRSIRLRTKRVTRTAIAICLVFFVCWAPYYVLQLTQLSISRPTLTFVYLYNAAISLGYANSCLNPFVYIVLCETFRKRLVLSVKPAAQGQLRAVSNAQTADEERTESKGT

| Compound | IC50 |
| --- | --- |
| O=c1n(-c2ccc(Oc3ccccc3)cc2)ccn1C1CCC(N2CCN(CCO)CC2)CC1 (stereo not shown) [Example 3] | 2 to 10 µM |
| O=c1n(-c2ccc(Oc3ccccc3)cc2)ccn1C1CCC(NC2CN3CCC2CC3)CC1 (stereo not shown) [Example 6] | 2 to 10 µM |
| CC(=O)N[C@@H]1CCN(C2CCC(n3ccn(-c4ccc(Oc5ccccc5)cc4)c3=O)CC2)C1 (stereo partly drawn) [Example 1, (R)-N-(1-{4-[2-oxo-3-(4-phenoxyphenyl)-2,3-dihydroimidazol-1-yl]cyclohexyl}pyrrolidin-3-yl)acetamide] | 0.01 to 2 µM |
| O=c1n(-c2ccc(Oc3ccccc3)cc2)ccn1C1CCC(N2CCCNCC2)CC1 (stereo not shown) [Example 8] | 0.01 to 2 µM |
| CN1CCN(C2CCC(n3ccn(-c4ccc(Oc5ccccc5)cc4)c3=O)CC2)CC1 (stereo not shown) [Example 9] | 2 to 10 µM |
| O=c1n(-c2ccc(Oc3ccccc3)cc2)ccn1C1CCC(N2CCNCC2)CC1 (stereo not shown) [Example 5] | 0.01 to 2 µM |
| CN(C)CCO[C@H]1CC[C@H](n2ccn(-c3ccc(OC4CCCC4)cc3)c2=O)CC1 [Example 2, Trans-1-(4-cyclopentyloxy-phenyl)-3-[4-(2-dimethylaminoethoxy)cyclohexyl]-1,3-dihydroimidazol-2-one] | 0.01 to 2 µM |
